# Laboratory results as given in US10808008B2, “Aromatic-cationic peptides and uses of same” (Cornell University, priority 2012, dated 2020).
# Entries after “also recorded” stand apart in the source; their conditions may differ.
# Assays:
# [1] = Fluorescence spectroscopy of labelled peptide with other phospholipids; assay type: binding; conditions: 1 μM peptide
# Method: 1-palmitoyl-2-oleoyl-sn-glycero-3-phosphocholine (POPC), 1-palmitoyl-2-oleoyl-sn-glycero-3-phosphate (POPA), 1-palmitoyl-2-oleoyl-sn-glycero-3-phospho-L-serine (POPS), 1-palmitoyl-2-oleoyl-sn-glycero-3-phosphoethanolamine (PE), and 1,2-dipalmitoyl-sn-glycero-3-phospho-(1′-rac-glycerol) (DPPG) were obtained from Avanti Polar Lipids Inc (Alabaster, Ala.).
# Changes in the emission intensity of the [atn]SS-02 and the [ald]SS-02 were measured using a Hitachi F-4500 fluorescence spectrophotometer. The different solvents used to dissolve the various phospholipids (chloroform, methanol and ethanol) had negligible effect on the fluorescence spectrum of [atn]SS-02 and [ald]SS-02. All experiments were done in low ionic solution (deionized water) to optimize electrostatic interactions of peptides with phospholipids.
# isolated mitochondria = assay: ATP synthesis in isolated mitochondria; assay type: biochemical, rat
# Method: (§1) Fresh mitochondria were isolated from rat kidney as described previously. Electron flux was measured by O2 consumption (Oxygraph Clark electrode) as previously described using different substrates for C1 (glutamate/malate), C2 (succinate), and C3 (TMPD/ascorbate). Assays were carried out under low substrate conditions in order to avoid saturating the enzyme reactions. ATP production in isolated mitochondria was determined kinetically using the luciferase method (Biotherma) in a 96-well luminescence plate reader (Molecular Devices). The initial maximal rate for ATP synthesis was determined over the first minute.
# The rate of mitochondrial ATP synthesis was determined by measuring ATP in respiration buffer collected from isolated mitochondria 1 min after addition of […] (FIG. 6). ATP was assayed by HPLC. All experiments were carried out in triplicate, with n=3. […] Accordingly, aromatic-cationic peptides of the present disclosure are useful for increasing ATP synthesis in mitochondria and for treating diseases or disorder characterized by dysregulation of ATP synthesis.
# (§2) SS-20 or SS-31 was added at 100 μM concentrations to isolated mitochondria in respiration buffer containing 0.5 mM succinate (complex II substrate) and 400 μM ADP. Similar increases in O2 consumption were observed when low concentrations of complex I substrates (glutamate/malate) were used (data not shown). […] Accordingly, targeting SS-20 and SS-31 to the IMM can facilitate electron flux in the electron transport chain and improve ATP synthesis, especially under conditions of reduced substrate supply.
# Increase in electron flux in the electron transport chain can either result in increase in ATP synthesis or increase in electron leak and generation of free radicals. ATP synthesis in isolated mitochondria was assayed by HPLC. […] Accordingly, aromatic-cationic peptides of the present disclosure are useful for increasing ATP synthesis in mitochondria and for treating diseases or disorder characterized by dysregulation of ATP synthesis.
# [2] = test system: cytochrome c-depleted mitoplasts; assay: Respiration in cytochrome c-depleted mitoplasts; assay type: biochemical, rat
# Method: Rates of respiration were measured in the presence of 500 μM Succinate with or without 100 μM SS-31. The experiment was carried out in triplicate, with n=3. […] Accordingly, aromatic-cationic peptides of the present disclosure are useful for the prevention or treatment of diseases or disorders characterized by dysregulation of cytochrome c.
# A model of cytochrome c tightly bound to mitochondrial cardiolipin was used to investigate interaction of SS-31 with cytochrome c-CL complex in mitochondria. After removal of outer membrane with digitonin, mitoplasts were washed with 120 mM KCl to remove all free and electrostatically associated cytochrome c, leaving only cytochrome c tightly bound to CL.
# [3] = test system: isolated rat kidney mitochondria; assay: O2 consumption in isolated mitochondria; assay type: biochemical
# Method: as §1
# Oxygen consumption of isolated rat kidney mitochondria was determined using the Oxygraph (FIG. 5). Rates of respiration were measured in the presence of different concentrations of SS-31 in state 2 (400 μM ADP only), state 3 (400 μM ADP and 500 μM substrates) and state 4 (substrates only). All experiments were done in triplicate with n=4−7. […] Accordingly, aromatic-cationic peptides of the present disclosure are useful for promoting electron transfer to oxygen without uncoupling mitochondria, increasing O2 consumption, and treating diseases or conditions related to dysregulation of O2 consumption in mitochondria.
# as §2
# SS-20 or SS-31 was added at 10 μM or 100 μM concentrations to isolated mitochondria in respiration buffer containing glutamate/malate (complex I substrate), 0.5 mM succinate (complex II substrate) or 3 μM TMPD/1 mM ascorbate (direct reductant of cytochrome c). 400 μM ADP was added to initiate State 3 respiration.
# cytochrome c [4] = target: T1, cytochrome c (Equus caballus, UniProt P00004); assay: Cytochrome c reduction kinetics (absorption spectroscopy); assay type: biochemical
# T1 sequence (P00004 2-105 limits assumed): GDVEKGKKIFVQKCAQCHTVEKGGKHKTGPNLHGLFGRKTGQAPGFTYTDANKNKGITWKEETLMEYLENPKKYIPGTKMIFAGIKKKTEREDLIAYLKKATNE
# Method: Increasing amounts of aromatic-cationic peptides were added to a solution of oxidized cytochrome c. The formation of reduced cytochrome c was monitored by absorbance at […]. The rate of cytochrome c reduction was determined by non-linear analysis (Prizm software).
# Time-resolved UV-Visible absorption spectroscopy was used to study the electron transport process of cytochrome c in the presence of peptides. Reduced cytochrome c was monitored by absorbance at a broad-band spectral range (200-1100 nm). The absorption changes were recorded with a UV/Visible spectrophotometer (Ultrospec 3300 pro, GE) in quartz cells with path lengths of 1 or 2 mm. N-acetylcysteine (NAC) and glutathione were used as electron donors to reduce oxidized cytochrome c. The rate constant of cytochrome c reduction was estimated by adding various concentrations of peptides. The dose dependence of the peptides was correlated to the cytochrome c reduction kinetics.
# Absorption spectroscopy (UltroSpec 3300 Pro; 220-1100 nm) was used to determine if SS-31 modulates cytochrome c reduction (FIG. 1). Reduction of cytochrome c with glutathione is associated with multiple shifts in the Q band (450-650 nm), with a prominent shift at 550 nm. […] Accordingly, the aromatic-cationic peptides of the present disclosure are useful for altering the structure and oxidation state of cytochrome c, and are useful for the prevention or treatment of diseases or disorders characterized by dysregulation of cytochrome c.
# Reduction of cytochrome c was monitored by increase in absorbance at 550 nm. […] Similar results were obtained using N-acetylcysteine (NAC) as a reducing agent (not shown). […] Accordingly, aromatic-cationic peptides of the present disclosure are useful for the prevention or treatment of diseases or disorders characterized by dysregulation of cytochrome c and are useful for facilitating cytochrome c reduction.
# cytochrome c [5] = target: T1, cytochrome c; assay: Fluorescence quenching of labelled peptides by cytochrome c; assay type: binding, horse; parameters: from tissue; host or cells: horse heart; conditions: additions of 75 μg/ml BSA
substance,measurement,setting,value
"2′,6′-Dmt-D-Arg-Ald-Lys-NH2 [SS-36]","interaction with POPC, POPE and neutral cholesterol",[1],No interaction
"D-Arg-2′,6′-Dmt-Lys-Phe-NH2 [SS-31]",rate of ATP synthesis,"isolated mitochondria; 1 min after addition of 400 mM ADP, HPLC",dose-dependently increased the rate of ATP synthesis
same,ATP synthesis,isolated mitochondria; assayed by HPLC (Example 18),dose-dependently increased ATP synthesis
same,rate of ATP production,isolated mitochondria; mitochondria energized with low concentrations of succinate,significant increase in the rate of ATP production
same,respiration (O2 consumption) in cytochrome c-depleted mitoplasts,"[2]; 500 μM succinate, 100 μM SS-31",Enhances Respiration in Cytochrome c-Depleted Mitoplasts
same,complex II respiration in mitoplasts with tightly bound cytochrome c,[2]; mitoplasts washed with 120 mM KCl,enhances complex II respiration in mitoplasts with cytochrome c tightly bound to inner mitochondrial membrane in a dose-dependent manner
same,O2 consumption in state 3 respiration,"[3]; 10 μM or 100 μM peptide, complex I or complex II substrates or TMPD/ascorbate, 400 μM ADP",increased O2 consumption in state 3 respiration
same,electron flux measured by O2 consumption,"[3]; 100 μM peptide, 0.5 mM succinate, 400 μM ADP",promote electron flux
same,electron transfer to oxygen (rates of respiration),"[3]; state 2, state 3 and state 4, different concentrations of SS-31",promoted electron transfer to oxygen without uncoupling mitochondria
same,rate of NAC-induced cytochrome c reduction,cytochrome c [4]; N-acetylcysteine (NAC) as reducing agent,dose-dependently increased the rate of NAC-induced cytochrome c reduction
same,rate (kinetics) of cytochrome c reduction,"cytochrome c [4]; glutathione (GSH) as reducing agent, absorbance at 550 nm",increased the rate of cytochrome c reduction; also recorded: accelerate the kinetics of cytochrome c reduction
same,reduction of cytochrome c by peptide alone,cytochrome c [4]; peptide alone at 100 μM,did not reduce cytochrome c
same,spectral weight shift in Q band of cytochrome c,cytochrome c [4]; reduction of cytochrome c with glutathione,significant spectral weight shift at 550 nm
"2′,6′-Dmt-D-Arg-Phe-(atn)Dap-NH2 [SS-19]",reversal of cytochrome c quenching by BSA,cytochrome c [5],did not reverse quenching
